The values below come from patent US20090137593A1, “4-AMINO-2,6-DIMETHYLPHENOL COMPOUND, PROCESS FOR ITS PREPARATION AND PHARMACEUTICAL COMPOSITION COMPRISING THE SAME” (AZIEN CHIM RIUNITE ANGEL FRANC A.C.R.A.F. S.P.A., priority 2006, published 2009).

Molecules are shown by their SMILES. Where a name gives a salt, the structure may show the parent alone.

Test [1] concerns yeast-induced febrile response. The test can be described thus: Anti-pyretic activity (yeast-induced febrile response, rectal temperature). It counts as in vivo, Male CD rats. The settings on record: CD rats; for effect on the febrile response (rectal temperature): 30 mg/kg ip 18 hours after yeast, FIG. 1. The procedure:
This test allows in vivo evaluation of the effects on the yeast-induced febrile response. Male CD rats weighing 101-125 g were used. Fevers were induced by subcutaneous injection of a 15% yeast suspension. 18 hours after the administration of yeast, a first group of animals was treated intraperitoneally (30 mg/kg) with Compound 2, while a second group of animals was treated with the Comparison Compound. A third group of control animals received intraperitoneally only the vehicle (methylcellulose) used to administer the tested compounds. For all the groups, the rectal temperature was measured 30 minutes and 1, 2 and 4 hours after the treatment.

Test [2] has as its system nociceptive response induced by mechanical hyperalgesia. The test can be described thus: Anti-nociceptive activity (carrageenan-induced mechanical hyperalgesia, analgesimeter). It counts as in vivo, Male CD rats. The conditions noted are these: Rattus norvegicus; CD rats, ip 2 hours after carrageenan, evaluated 1, 2 and 4 hours after treatment; read-out: ED50 (anti-nociceptive, mechanical pain threshold).

In test [3] the test system is 5-LO-mediated bronchoconstriction. Briefly: Effect on 5-LO-mediated bronchoconstriction in vivo (ovalbumin-sensitized guinea pigs, intratracheal pressure). The settings on record: Cavia porcellus, 100 mg/kg ip, 30 minutes before ovalbumin 15 μg/kg iv, read-out: percentage of inhibition of bronchoconstriction. How it is done: Guinea pigs weighing 250-400 g were used.
The animals were sensitized by administration on days 1 and 8 of ovalbumin (0.5 μg/animal, ip). Between days 19 and 23 after the sensitization, the capacity of ovalbumin (15 μg/kg, iv) to induce bronchoconstriction was tested by measuring the increase in intratracheal pressure.
On the day of the test, 30 minutes after administration of Compound 2 (100 mg/kg, ip), the animals were treated with mepiramine (2 mg/kg, iv), indomethacin (10 mg/kg, iv) and propranolol (0.1 mg/kg, iv), and then received ovalbumin (15 μg/kg, iv) to induce bronchoconstriction. The control animals received intraperitoneally only the vehicle used (methylcellulose) for the administration of the tested compound.
The effects on 5-LO-mediated bronchoconstriction in vivo were evaluated by measuring the intratracheal pressure, and are expressed as a percentage of inhibition of bronchoconstriction.

Test [4] concerns nephritis induced by anti-GBM antibodies. Briefly: Effects on nephritis induced by anti-GBM antibodies (proteinuria over 24 hours). The settings on record: Rattus norvegicus, WKY rats, 100 mg/kg ip, 2 administrations per day, tenth day, read-out: percentage of inhibition of the amount of protein excreted (anti-GBM nephritis). Format: in vivo, Male WKY rats. How it is done: This test allows evaluation in vivo of the effects on renal damage induced by the inflammatory response following the administration of anti-GBM antibodies (anti-glomerular basal membrane antibodies). Male WKY rats weighing 180-220 g were used. The nephritis was induced by intravenous injection of anti-GBM antibodies. Immediately after administration of the antibody and 6 hours later, Compound 2 was administered intraperitoneally (100 mg/kg). The treatment was continued for the following 9 days, with 2 administrations per day of the tested product. By following the same methods, the control animals received only the vehicle (methylcellulose) used to administer the tested compound. On the tenth day from injection of the antibodies, the effects on nephritis were evaluated by measuring the proteinuria over 24 hours and expressed as a percentage of inhibition of the amount of protein excreted.

The next test addresses T1, enzyme 5-LO (Homo sapiens, UniProt P09917).
T1 construct: Human PMNL cells (polymorphonuclear leukocytes) were used; endogenous in cells; host or cells: human polymorphonuclear leukocytes (PMNL)
T1 sequence (P09917 1-674): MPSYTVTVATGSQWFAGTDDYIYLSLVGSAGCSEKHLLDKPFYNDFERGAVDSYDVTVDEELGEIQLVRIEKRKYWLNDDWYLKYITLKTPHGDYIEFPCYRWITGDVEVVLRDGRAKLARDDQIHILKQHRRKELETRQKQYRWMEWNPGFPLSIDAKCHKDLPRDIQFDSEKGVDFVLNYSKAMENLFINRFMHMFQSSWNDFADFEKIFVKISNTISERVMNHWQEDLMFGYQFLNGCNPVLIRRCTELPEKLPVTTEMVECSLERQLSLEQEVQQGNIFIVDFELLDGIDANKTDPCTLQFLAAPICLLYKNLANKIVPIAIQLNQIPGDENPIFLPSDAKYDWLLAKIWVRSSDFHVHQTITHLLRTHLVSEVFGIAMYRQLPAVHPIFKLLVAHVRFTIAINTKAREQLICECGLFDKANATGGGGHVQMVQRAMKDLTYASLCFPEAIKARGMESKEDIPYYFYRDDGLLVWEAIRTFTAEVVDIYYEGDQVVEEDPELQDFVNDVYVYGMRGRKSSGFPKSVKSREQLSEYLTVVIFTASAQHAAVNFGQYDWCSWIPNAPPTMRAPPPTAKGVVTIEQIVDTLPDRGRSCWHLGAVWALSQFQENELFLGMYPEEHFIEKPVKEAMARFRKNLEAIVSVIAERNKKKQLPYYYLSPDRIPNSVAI
The test can be described thus: Effect on the enzyme 5-LO in vitro (human PMNL cells, arachidonic acid substrate, leukotriene quantification). The conditions noted are these: arachidonic acid as substrate, leukotriene (LT4) quantified. It counts as cell-based. How it is done:
Human PMNL cells (polymorphonuclear leukocytes) were used.
The cells were incubated in the presence of N-(4-hydroxy-3,5-di-methylphenyl)-2-morpholin-4-yl acetamide hydrochloride (Compound 2), using arachidonic acid as reaction substrate.
The activity of the enzyme 5-LO was evaluated by quantifying leukotriene […], which is the final product of the enzymatic reaction.

A further test concerns PAN-induced nephrosis. The test can be described thus: Effects on PAN-induced nephrosis (proteinuria over 24 hours). Format: in vivo, Male SD rats. The conditions noted are these: Rattus norvegicus, SD rats, 100 mg/kg ip on seventh day, read-out: percentage of inhibition of the amount of protein excreted (PAN-induced nephrosis). How it is done:
This test allows the in vivo evaluation of the effects on renal damage induced by the inflammatory response following the administration of PAN (puromycin aminonucleoside). Male SD rats weighing 180-220 g were used. The nephrosis was induced by intravenous injection of PAN (100 mg/kg). On the sixth day of administration of PAN, the presence of nephrosis was determined by measuring the amount of protein excreted in the urine over 24 hours (basal proteinuria). On the seventh day, the rats were treated intraperitoneally with Compound 2 (100 mg/kg) and for the next 24 hours the urine was collected to measure the proteinuria. By following the same method, the control animals received, intraperitoneally, only the vehicle (methylcellulose) used to administer the tested compound. The effects on the PAN-induced nephrosis were evaluated by measuring the proteinuria over 24 hours and expressed as a percentage of inhibition of the amount of protein excreted.

The test system of test [5] is 5-LO-mediated bronchoconstriction. The settings on record: Sakuma Y et al., Prostaglandins, 1991; cited from earlier work.

What is called ED50 is the dose at which the effect has come halfway, by size or by number of responders. `Cc1cc(NC(=O)CCN2CCOCC2)cc(C)c1O` [Comparison Compound, N-(4-Hydroxy-3,5-dimethylphenyl)-3-morpholin-4-yl propanamide hydrochloride, reference compound]: the “effect on the febrile response (rectal temperature)” value in test [1] is given as “incapable of reducing the febrile response”. Further, in test [2], the ED50 was over 100 mg/kg.

By inhibition is commonly meant the percentage by which the read-out fell short of the control. Usually IC50 stands for the concentration that inhibits the measured activity by half. A high value points to a need for much substance. Regarding `Cc1cc(NC(=O)CN2CCOCC2)cc(C)c1O` [Compound 2, N-(4-Hydroxy-3,5-dimethylphenyl)-2-morpholin-4-yl acetamide hydrochloride], the “duration of the anti-pyretic effects” value in test [1] (30 mg/kg ip) is “about 4 hours”. Moreover, the “time to significant reduction in the febrile response after treatment” value in test [1] (30 mg/kg ip) is at most 1 h. Also, the “effect on the febrile response (rectal temperature)” value in test [1] was “significant reduction in the febrile response”. The values for the inhibition at 100 mg/kg (in test [3]; in test [4]; in the test with PAN-induced nephrosis) were 7%, 1% and 2%, respectively. For the same molecule, the median effective dose (ED50) in test [2] was 3 mg/kg. The molecule further showed an IC50 against enzyme 5-LO of 31 µM.

For the molecule `O=C1CCN(c2ccccc2)N1` [phenidone], the “percentage of inhibition of bronchoconstriction (literature reference)” value in test [5] was 86%.
